Where a name gives a salt, the structure may show the parent alone.
Legend:
Assay type in all cases: biochemical
human KDR enzyme = molecular target: T1, human KDR enzyme (Homo sapiens, UniProt P35968); assay: KDR substrate phosphorylation assay (scintillation, 96-well plate); conditions: cytoplasmic domain of human KDR as GST fusion, 2 μM cold ATP, 1 hour at 37° C.
T1 construct: The cytoplasmic domain of the human KDR enzyme was cloned in the form of a GST fusion; GST; made in house; host or cells: SF21 insect cells (baculovirus, pFastBac)
Procedure: 2. KDR The inhibitory effect of the compounds is determined in an assay of substrate phosphorylation by the KDR enzyme in vitro using a scintillation technique (96-well plate, NEN). The cytoplasmic domain of the human KDR enzyme was cloned in the form of a GST fusion into the baculovirus expression vector pFastBac. The protein was expressed in SF21 cells and purified to approximately 60% homogeneity. The kinase activity of KDR is measured in 20 mM MOPS, 10 mM MgCl2, 10 mM MnCl2, 1 mM DTT, 2.5 mM EGTA and 10 mM b-glycerophosphate, pH=7.2, in the presence of 10 mM MgCl2, 100 μM Na3VO4 and 1 mM NaF. 10 μl of the compound are added to 70 μl of kinase buffer containing 100 ng of KDR enzyme at 4° C. The reaction is initiated by adding 20 μl of solution containing 2 μg of substrate (SH2-SH3 fragment of PLCγ expressed in the form of a GST fusion protein), 2 μCi γ^33P[ATP] and 2 μM cold ATP. After incubation for 1 hour at 37° C., the reaction is stopped by adding 1 volume (100 μl) of 200 mM EDTA. The incubation buffer is removed, and the wells are washed three times with 300 μl of PBS. The radioactivity is measured in each well using a Top Count NXT radioactivity counter (Packard). The background noise is determined by measuring the radioactivity in four different wells containing radioactive ATP and the substrate alone. A total activity control is measured in four different wells containing all the reactants (γ^33P-[ATP], KDR and PLCγ substrate) but in the absence of compound. The inhibition of the KDR activity with the compound of the invention is expressed as percentage inhibition of the control activity determined in the absence of compound. The compound SU5614 (Calbiochem) (1 μM) is included in each plate as an inhibition control.

human Tie2 = molecular target: T2, human Tie2 (Homo sapiens, UniProt Q02763); assay: Tie2 PLC phosphorylation assay (GST-Tie2, FlashPlate); conditions: GST-Tie2 intracellular domain, 2 μM cold ATP, 1 hour at 37° C.; read-out: IC 50 Tie2
T2 construct: corresponding to the intracellular domain amino acids 776-1124 was generated by PCR; made in house; host or cells: baculovirus expression (pFastBacGT)
Procedure: The human Tie2 coding sequence corresponding to the intracellular domain amino acids 776-1124 was generated by PCR using the cDNA isolated from human placenta as model. This sequence was introduced into a baculovirus expression vector pFastBacGT in the form of a GST fusion protein.
The inhibitory effect of the molecules is determined in an assay of PLC phosphorylation by Tie2 in the presence of GST-Tie2 purified to approximately 80% of homogeneity. The substrate is composed of the SH2-SH3 fragments of PLC expressed in the form of a GST fusion protein.
The kinase activity of Tie2 is measured in a 20 mM MOPS buffer, pH 7.2, containing 10 mM MgCl2, 10 mM MnCl2, 1 mM DTT and 10 mM of glycerophosphate. In a FlashPlate 96-well plate kept on ice, a reaction mixture composed of 70 μl of kinase buffer containing 100 ng of GST-Tie2 enzyme is deposited per well. 10 μl of the test molecule diluted, in DMSO, to a concentration of at most 10% are subsequently added. For a given concentration, each measurement is carried out in quadruplicate. The reaction is initiated by adding 20 μl of solution containing 2 μg of GST-PLC, 2 μM of cold ATP and 1 μCi of ^33P[ATP]. After incubation for 1 hour at 37° C., the reaction is stopped by adding 1 volume (100 μl) of EDTA at 200 mM. After removal of the incubation buffer, the wells are washed three times with 300 μl of PBS. The radioactivity is measured on a Wallac MicroBeta1450.
The inhibition of the Tie2 activity is calculated and expressed as percentage inhibition relative to the control activity determined in the absence of compound.

human FAK = molecular target: T3, human FAK (Homo sapiens, UniProt Q05397); assay: FAK autophosphorylation time resolved fluorescence assay (HTRF); conditions: 15 μM ATP, 1 hour at 37° C.
T3 construct: The complete cDNA of human FAK, the N-terminal end of which had been labelled with histidine; made in house; host or cells: baculovirus expression (pFastBac HTc)
Procedure: Determination of the Activity of the Compounds—Experimental Protocols 1. FAK
The inhibitory activity of the compounds on FAK is determined by measuring the inhibition of autophosphorylation of the enzyme using a time resolved fluorescence assay (HTRF).
The complete cDNA of human FAK, the N-terminal end of which had been labelled with histidine, was cloned into a baculovirus expression vector pFastBac HTc. The protein was expressed and purified to approximately 70% homogeneity.
The kinase activity is determined by incubating the enzyme (6.6 μg/ml) with various concentrations of test compound in a 50 mM Hepes buffer, pH=7.2, containing 10 mM MgCl2, 100 μM Na3VO4, and 15 μM of ATP for 1 hour at 37° C. […] The XL-665-specific long-lasting signal is measured in a Packard Discovery plate counter. All the assays were carried out in duplicate and the mean of the two assays is calculated. The inhibition of the FAK autophosphorylation activity with compounds of the invention is expressed as percentage inhibition relative to a control, the activity of which is measured in the absence of test compound. […]

T1 sequence (P35968 786-1356 limits assumed): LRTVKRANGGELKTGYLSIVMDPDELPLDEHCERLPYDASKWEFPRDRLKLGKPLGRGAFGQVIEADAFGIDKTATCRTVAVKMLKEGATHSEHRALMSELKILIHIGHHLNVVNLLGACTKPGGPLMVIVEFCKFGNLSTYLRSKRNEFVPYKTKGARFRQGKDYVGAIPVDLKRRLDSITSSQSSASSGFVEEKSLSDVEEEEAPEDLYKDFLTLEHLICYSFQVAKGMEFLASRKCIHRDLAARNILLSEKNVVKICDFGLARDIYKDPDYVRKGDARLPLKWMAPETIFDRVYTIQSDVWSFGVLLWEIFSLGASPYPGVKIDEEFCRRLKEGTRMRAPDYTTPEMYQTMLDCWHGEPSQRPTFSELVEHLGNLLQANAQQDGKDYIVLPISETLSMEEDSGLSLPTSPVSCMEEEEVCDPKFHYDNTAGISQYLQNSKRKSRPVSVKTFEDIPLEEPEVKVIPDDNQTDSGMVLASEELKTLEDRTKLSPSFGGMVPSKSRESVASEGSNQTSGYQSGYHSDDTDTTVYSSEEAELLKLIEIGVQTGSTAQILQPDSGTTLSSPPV
T2 sequence (Q02763 776-1124): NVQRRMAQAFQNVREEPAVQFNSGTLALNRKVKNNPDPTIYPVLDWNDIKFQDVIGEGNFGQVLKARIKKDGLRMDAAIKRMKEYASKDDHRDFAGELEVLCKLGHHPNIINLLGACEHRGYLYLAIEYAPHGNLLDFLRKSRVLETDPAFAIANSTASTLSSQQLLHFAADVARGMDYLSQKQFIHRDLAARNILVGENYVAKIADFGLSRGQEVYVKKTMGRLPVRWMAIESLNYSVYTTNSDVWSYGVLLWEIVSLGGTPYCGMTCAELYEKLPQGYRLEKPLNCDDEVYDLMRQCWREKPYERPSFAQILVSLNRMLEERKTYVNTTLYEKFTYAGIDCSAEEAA
T3 sequence (Q05397 whole entry): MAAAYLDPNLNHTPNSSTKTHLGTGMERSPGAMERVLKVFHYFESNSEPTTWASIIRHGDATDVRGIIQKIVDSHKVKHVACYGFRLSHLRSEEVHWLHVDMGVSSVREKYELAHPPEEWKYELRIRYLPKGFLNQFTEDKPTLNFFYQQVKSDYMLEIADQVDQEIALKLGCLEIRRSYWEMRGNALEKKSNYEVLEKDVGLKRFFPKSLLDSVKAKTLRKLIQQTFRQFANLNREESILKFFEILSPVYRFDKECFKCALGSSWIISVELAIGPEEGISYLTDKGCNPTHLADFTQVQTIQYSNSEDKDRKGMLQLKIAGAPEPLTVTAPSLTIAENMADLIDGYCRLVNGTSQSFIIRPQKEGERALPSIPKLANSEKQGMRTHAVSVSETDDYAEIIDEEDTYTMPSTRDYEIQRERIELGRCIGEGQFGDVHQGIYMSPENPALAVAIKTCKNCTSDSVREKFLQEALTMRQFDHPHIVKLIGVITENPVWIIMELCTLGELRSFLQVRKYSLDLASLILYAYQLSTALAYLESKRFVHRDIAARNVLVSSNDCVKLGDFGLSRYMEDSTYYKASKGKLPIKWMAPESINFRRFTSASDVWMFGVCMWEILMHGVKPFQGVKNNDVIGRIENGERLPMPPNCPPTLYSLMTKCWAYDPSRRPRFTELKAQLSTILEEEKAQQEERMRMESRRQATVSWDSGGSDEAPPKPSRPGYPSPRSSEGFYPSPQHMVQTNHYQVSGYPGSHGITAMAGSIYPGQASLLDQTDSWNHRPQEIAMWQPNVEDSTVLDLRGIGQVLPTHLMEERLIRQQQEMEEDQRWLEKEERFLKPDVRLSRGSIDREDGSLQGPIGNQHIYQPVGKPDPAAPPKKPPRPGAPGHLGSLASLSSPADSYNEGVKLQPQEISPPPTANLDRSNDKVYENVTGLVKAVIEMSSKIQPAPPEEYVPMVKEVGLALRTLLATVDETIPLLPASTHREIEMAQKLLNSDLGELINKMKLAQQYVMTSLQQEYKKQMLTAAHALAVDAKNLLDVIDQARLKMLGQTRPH

| SMILES | IC50 (human KDR enzyme) [nM] | IC50 (human Tie2) [nM] | IC50 (human FAK) [nM] |
| --- | --- | --- | --- |
| Nc1n[nH]c2nc(-c3ccc(NC(=O)Nc4cc(C(F)(F)F)ccc4F)cc3)ccc12 [Example 1, 1-[4-(3-Amino-1H-pyrazolo[3,4-b]pyridin-6-yl)phenyl]-3-(2-fluoro-5-trifluoromethylphenyl)urea] | 119 | 192 | – |
| Nc1n[nH]c2nc(-c3ccc(NS(=O)(=O)c4cccc(Cl)c4Cl)cc3)ccc12 [Example 3, N-[4-(3-Amino-1H-pyrazolo[3,4-b]pyridin-6-yl)phenyl]-2,3-dichlorobenzenesulphonamide] | – | 75 | – |
| CNC(=O)c1cc(-c2ccc(NS(=O)(=O)c3cccc(Cl)c3Cl)cc2)nc2[nH]ncc12 [Example 5] | – | 13 | – |
| O=C(Nc1ccccc1)Nc1ncc(-c2cc(C(=O)NCCN3CCOCC3)c3cn[nH]c3n2)s1 [Example 9] | 6820 | 443 | – |
| CNC(=O)c1cc(-c2cnc(NC(=O)Nc3cc(C(F)(F)F)ccc3F)s2)nc2[nH]ncc12 [Example 11] | 581 | 8 | 927 |
| CN(C)CCNC(=O)c1cc(-c2cnc(NC(=O)Nc3cc(C(F)(F)F)ccc3F)s2)nc2[nH]ncc12 [Example 12] | 2360 | 30 | – |
| O=C(Nc1ncc(-c2cc(C(=O)N3CCNCC3)c3cn[nH]c3n2)s1)Nc1cc(C(F)(F)F)ccc1F [Example 16] | 200 | 7 | – |
| CNC(=O)c1cc(-c2ccc(NC(=O)Nc3cc(C(F)(F)F)ccc3F)nc2)nc2[nH]ncc12 [Example 20] | – | 777 | – |
| O=C(Nc1ccc(-c2cc(C(=O)NCCN3CCOCC3)c3cn[nH]c3n2)cn1)Nc1cc(C(F)(F)F)ccc1F [Example 21] | – | 6030 | – |
| O=C(Nc1ncc(-c2cc(C(=O)NCc3ccncc3)c3cn[nH]c3n2)s1)Nc1cc(C(F)(F)F)ccc1F [Example 28] | 4660 | 105 | – |
| O=C(Nc1ncc(-c2cc(C(=O)NCCCN3CCCC3CO)c3cn[nH]c3n2)s1)Nc1cc(C(F)(F)F)ccc1F (stereo not shown) [Example 31] | 647 | 9 | – |
| CNC(=O)c1cc(-c2cccc(NC(=O)Nc3cc(C(F)(F)F)ccc3F)c2)nc2[nH]ncc12 [Example 33] | – | 2700 | – |
| O=C(Nc1cccc(-c2cc(C(=O)NCCN3CCOCC3)c3cn[nH]c3n2)c1)Nc1cc(C(F)(F)F)ccc1F [Example 34] | – | 4140 | – |
| O=C(Nc1ccc(C(F)(F)F)cc1)Nc1ncc(-c2cc(C(=O)NCCN3CCOCC3)c3cn[nH]c3n2)s1 [Example 55] | 3540 | 88 | – |

The remaining lines, values ahead:

| IC50 (human KDR enzyme) [nM] | IC50 (human Tie2) [nM] | IC50 (human FAK) [nM] | SMILES |
| --- | --- | --- | --- |
| 6 | 7 | – | O=C(Nc1ccc(-c2ccc3c(NC(=O)c4ccsc4)n[nH]c3n2)cc1)Nc1cc(C(F)(F)F)ccc1F [Example 2, Thiophene-3-carboxylic acid (6-{4-[3-(2-fluoro-5-trifluoromethylphenyl)ureido]phenyl}-1H-pyrazolo[3,4-b]pyridin-3-yl)amide] |
| 83 | 1 | 343 | O=C(Nc1ncc(-c2cc(C(=O)NCCN3CCOCC3)c3cn[nH]c3n2)s1)Nc1cc(C(F)(F)F)ccc1F [Example 4, 6-{2-[3-(2-Fluoro-5-trifluoromethylphenyl)ureido]thiazol-5-yl}-1H-pyrazolo[3,4-b]pyridine-4-carboxylic acid (2-morpholin-4-ylethyl)amide trifluoroacetate] |
| 373 | 4 | – | CN(C)CC(C)(C)CNC(=O)c1cc(-c2cnc(NC(=O)Nc3cc(C(F)(F)F)ccc3F)s2)nc2[nH]ncc12 [Example 13] |
| 293 | 7 | – | O=C(Nc1ncc(-c2cc(C(=O)NCCc3cnc[nH]3)c3cn[nH]c3n2)s1)Nc1cc(C(F)(F)F)ccc1F [Example 14] |
| 70 | 2 | – | O=C(Nc1ncc(-c2cc(C(=O)N3CCOCC3)c3cn[nH]c3n2)s1)Nc1cc(C(F)(F)F)ccc1F [Example 15] |
| 46 | 1 | – | CN1CCN(C(=O)c2cc(-c3cnc(NC(=O)Nc4cc(C(F)(F)F)ccc4F)s3)nc3[nH]ncc23)CC1 [Example 17] |
| 511 | 4 | – | O=C(Nc1ncc(-c2cc(C(=O)NCCCN3CCOCC3)c3cn[nH]c3n2)s1)Nc1cc(C(F)(F)F)ccc1F [Example 22] |
| 527 | 6 | – | O=C(Nc1ncc(-c2cc(C(=O)NCCN3CCNCC3)c3cn[nH]c3n2)s1)Nc1cc(C(F)(F)F)ccc1F [Example 23] |
| 133 | 2 | – | O=C(Nc1ncc(-c2cc(C(=O)NCCC3CCNCC3)c3cn[nH]c3n2)s1)Nc1cc(C(F)(F)F)ccc1F [Example 24] |
| 387 | 3 | – | O=C(Nc1ncc(-c2cc(C(=O)NCCO)c3cn[nH]c3n2)s1)Nc1cc(C(F)(F)F)ccc1F [Example 26] |
| 160 | 3 | – | O=C(Nc1ncc(-c2cc(C(=O)NCc3ccccn3)c3cn[nH]c3n2)s1)Nc1cc(C(F)(F)F)ccc1F [Example 29] |
